Measurements taken from patent publication US9034863B2, “Compositions and methods for inhibiting entry of a hepatic virus” (The Board of Trustees of the University of Illinois, priority 2008, dated 2015).

Key:
Assay type in all cases: cell-based, Hepatitis C virus (HCV)
[1] = system: HCV genotype 2a subgenomic replicon; experiment: HCV sg2a replicon RNA replication in Huh7 cells, RT-qPCR; conditions: 72 hours post-treatment
Description: Huh7 cells, also known as Huh7/scr cells, are well-known in the art (Zhong, et al. (2005) Proc. Natl. Acad. Sci. USA 102, 9294-99; Gastaminza, et al. (2006) J. Virol. 80:11074-81; Zhong, et al. (2006) J. Virol. 80:11082-93; Sainz et al. (2009) PLoS ONE 4:e6561). […] The HCV sg2a replicon was established as previously described (Uprichard, et al. (2006) Virol. J. 3:89). Briefly the HCV genotype 2a subgenomic replicon RNA (psgJFH1; Kato, et al. (2003) Gastroenterology 125:1808-17) was XbaI linearized, in vitro transcribed using […] T7 (Ambion, Austin, Tex.) and transfected into cells using a modified electroporation protocol (Krieger, et al. (2001) J. Virol. 75(10):4614-24). All cells were cultured in complete Dulbecco's modified Eagle's medium (cDMEM) (Hyclone, Logan, Utah) supplemented with 10% fetal bovine serum (FBS) (Hyclone), 100 units/ml penicillin, […] streptomycin, and 2 mM L-glutamine (Gibco Invitrogen, Carlsbad, Calif.) and 500 μg/ml geneticin ((Invitrogen) for HCV replicon cells only).
(§1) Total cellular RNA was purified using an ABI PRISM™ 6100 Nucleic Acid PrepStation (Applied Biosystems), as per the manufacturer's instructions. […] HCV JFH-1 and human GAPDH RNA transcript levels were determined relative to a standard curve derived from serial dilutions of plasmid containing the JFH-1 HCV cDNA or the human GAPDH coding sequence, respectively. […]

[2] = system: HCV genotype 1b subgenomic replicon; experiment: HCV sg1b replicon RNA replication in Huh7 cells, RT-qPCR; conditions: 72 hours post-treatment
HCVcc = experiment: HCV foci reduction assay, acute HCVcc infection of Huh7 cells; conditions: added pre-, co- or post-infection
HCV-JFH-1 = experiment: Chronic HCV-JFH-1 infection of Huh7-1 cells, inhibitor combinations, RT-qPCR 24-96 h (FIG. 3-5); conditions: for reduction of HCV levels (FIG. 3): PI 200 nM; for reduction of HCV levels (FIG. 3) / decrease in intracellular HCV load (FIG. 4B): IFN-α 100 U/ml; for decrease in intracellular HCV load (FIG. 4B): ferristatin 50 μM
Protocol: RT-qPCR analysis of intracellular HCV RNA levels in Huh7 cultures mock-treated, treated with ezetimibe (30 μM), PI (200 nM), IFN-α (100 U/ml), or indicated combinations thereof (n=3). Data presented are representative of multiple independent experiments.
FIG. 4A, Chronically infected Huh7-1 cell cultures (n=3) treated with ezetimibe (E), naringenin (N), interferon α (I), or combinations thereof, were harvested at 24, 48, 72 or 96 hours post-treatment, intracellular HCV levels were quantified by RT-qPCR, and are presented as HCV copies/μg RNA. FIG. 4B, Chronically infected Huh7-1 cell cultures (n=3) treated with ezetimibe (E), ferristatin (T), interferon α (I), or combinations thereof, were harvested at 24, 48, 72 or 96 hours post-treatment, intracellular HCV levels were quantified by RT-qPCR, and are presented as HCV copies/μg RNA.
Shown are the results of RT-qPCR analysis of intracellular HCV RNA levels in Huh7 cultures mock-treated, treated with ezetimibe (30 μM), polymerase inhibitor, RG7128 (1 μM), or a combination thereof (n=3).
For experiments analyzing the activity of ezetimibe in combination with a protease inhibitor, Huh7-1 cells were infected with HCV-JFH-1 and allowed to reach steady state levels of infection. The HCV-infected cells were seeded in a 96-well plate and treated with the following: medium alone, 30 μM ezetimibe, 200 nM ITMN5537, 100 μ/ml IFN-α, and combinations of the above drugs at the specified concentrations. Medium and drugs were replaced every 24 hours. Triplicate wells were harvested at 24, 48, 72 or 96 hours post-treatment, in 200 μl/well of 1×ABI lysis buffer and stored at −80° C. until RNA extraction.
Therefore, the therapeutic potential of an IFN-free antiviral cocktail was also investigated, using ezetimibe in combination with other direct acting inhibitors of HCV amplification, specifically an inhibitor of the HCV NS3/4A protease (ITMN 5537; Intermune, Brisbane, Calif.). Huh7-1 cells were infected with HCV-JFH-1 and allowed to reach steady state levels of infection. Cells were monotreated with protease inhibitor (PI) or ezetimibe or IFN alone or treated with combinations of PI+ezetimibe or PI+IFN or IFN+ezetimibe or a combination of all three inhibitors. Samples were harvested at 24, 48, 72 or 96 hours post-treatment, the intracellular RNA was extracted and RT-qPCR performed to quantify HCV copies.
Thus, parallel cultures of chronically infected Huh7-1 cells were established and subsequently treated with ezetimibe, naringenin or IFN-α, either alone or in combination. Treatments were replenished every 24 hours. Triplicate cultures of each treatment condition were harvested at 24, 48, 72 or 96 hours post-treatment and intracellular HCV levels were quantified by RT-qPCR (FIG. 4A). […] Thus, no evidence of synergy was observed when IFN-α was combined with an egress inhibitor that only blocks cell-free spread.
As an alternative method of determining the therapeutic importance of inhibiting HCV cell-to-cell spread, an inhibitor to TfR1 was used. TfR1 has also been identified as another host cell factor that is involved in cell-free entry of HCV into cells, but is not required for cell-to-cell-mediated HCV entry. Thus, unlike ezetimibe which inhibits both cell-free and cell-to-cell HCV spread, the TfR1 inhibitor, ferristatin, only blocks cell-free virus spread. Again, chronically infected Huh7-1 cell cultures were established and treated with ezetimibe (30 μM), ferristatin (50 μM), or IFN-α (100 U/ml), either alone or in combination and treatments were replenished every 24 hours. Intracellular HCV copies were quantified from triplicate cultures by RT-qPCR at 24, 48, 72 or 96 hours post-treatment (FIG. 4B).
Huh7-1 cells were infected with HCV-JFH-1 and allowed to reach steady state levels of infection. Cells were monotreated with HCV polymerase inhibitor RG7128 (1 μM) or ezetimibe (30 μM) alone or treated with a combination of RG7128 and ezetimibe. […]

HCVcc JFH-1 = experiment: Chronic HCVcc infection in growing Huh7 cells, long-term treatment, RT-qPCR (FIG. 2)
Protocol: Cultures of growing Huh7 cells were inoculated with HCVcc JFH-1 at an MOT of 0.01 FFU/cell. Infected cultures were maintained for an additional 10 days to allow HCV RNA to reach steady-state levels. FIG. 2A, Cultures were mock treated, treated with ezetimibe alone (30 μM), IFN-α (100 U/ml) alone, or ezetimibe (30 μM) plus IFN-α (100 U/ml) in combination. Treatments were maintained as cultures were passaged. FIG. 2B, After 70 days IFN-α or combination ezetimibe plus IFN-α treatment, treatment was either continued (open shapes) or discontinued (filled shapes). […] Results are graphed as means±s.e.m. for triplicate samples. The data presented are representative of two independent experiments.
For experiments in growing cells, Huh7 cells seeded at 1×10^6 cells in a T75 cell culture flask (Corning) were infected with JFH-1 HCVcc at a MOI of 0.01 FFU/cell and subsequently cultured for 10 days to allow HCV RNA to reach steady-state levels. On day 10 post-infection, cells were split 1:4 and re-plated into T25 culture flasks (Corning). Twenty four hours post seeding, individual flasks were mock-treated with cDMEM or treated with cDMEM containing IFN-α (100 U/ml), ezetimibe (30 μM) or a combination of both IFN-α (100 U/ml) and ezetimibe (30 μM). Throughout the course of the experiment, fresh media with treatments was replenished every two days and cells were trypsinized just before reaching confluence and re-plated at a dilution of 1:3 to maintain active cell growth. […]
as §1
To confirm HCV clearance, drug treatments were subsequently discontinued on day 70 and HCV RNA levels were monitored for an additional 30 days.

Question: CC[C@H](C)C(=O)O[C@H]1C[C@@H](C)C=C2C=C[C@H](C)[C@H](CC[C@@H]3C[C@@H](O)CC(=O)O3)[C@H]21 [Lovastatin] was tested. Which “sg2a HCV RNA levels” value [1] did it give?
Answer: had no affect

Question: What about the “reduction of sg1b RNA levels” value [2] of the same molecule?
Answer: 22 fold

Question: What about the “inhibition of HCVcc foci formation” value (HCVcc) of the same molecule?
Answer: had no affect

Question: How did the “reduction of HCV levels (FIG. 3)” value (HCV-JFH-1; ezetimibe 30 μM) turn out when CC(C)(C)OC(=O)N[C@H]1CCCCC/C=C\[C@@H]2C[C@@]2(C(=O)NS(=O)(=O)C2(C)CC2)NC(=O)[C@@H]2C[C@@H](OC(=O)N3Cc4cccc(F)c4C3)CN2C1=O [PI] was run?
Answer: less than a log

Question: How did the “reduction of HCV levels (FIG. 5)” value (HCV-JFH-1; RG7128 1 μM, ezetimibe 30 μM, normalized to Mock) turn out when CC(C)C(=O)OC[C@H]1O[C@@H](n2ccc(N)nc2=O)[C@](C)(F)[C@@H]1OC(=O)C(C)C [RG7128] was run?
Answer: less than a log

Question: Which “decrease in intracellular HCV load (FIG. 4B)” value (HCV-JFH-1; ezetimibe 30 μM) does the source give for Cc1[n-]n(-c2ccc(S(=O)(=O)O)cc2)c(=O)c1N=Nc1ccc(-c2ccc(N=Nc3ccc4c(S(=O)(=O)O)cc(S(=O)(=O)O)c(N)c4c3[O-])c([O-])c2)cc1[O-].[Cu+2].[Cu+2] [ferristatin] here?
Answer: neither ezetimibe nor ferristatin alone reduced intracellular HCV load

Question: What does the source list for IFN-α?
Answer: decrease in intracellular HCV RNA levels (HCVcc JFH-1; by day 32 post-treatment vs mock, IFN-α 100 U/ml, ezetimibe 30 μM): ~2 logs; rebound in HCV RNA after treatment discontinued (HCVcc JFH-1; discontinued on day 70, monitored 30 days): immediate rebound; reduction of HCV levels (FIG. 3) (HCV-JFH-1; ezetimibe 30 μM): a log; decrease in intracellular HCV load (FIG. 4B) (HCV-JFH-1; ezetimibe 30 μM): a log decrease; reduction of HCV copies (FIG. 4A) (HCV-JFH-1; ezetimibe, naringenin, IFN-α alone or in combination): a log decrease
